From patent US7998414B2, “System for high throughput GPCR functional assay” (priority 2007, dated 2011)

Biological target: T1, opioid receptor mu (OPRM) (Homo sapiens, UniProt P35372)
T1 construct: purchased Perkin-Elmer Life Science (Boston, Mass.)
Assay: Eu-GTP based functional assay on GPCR microarray on porous glass substrate
Format: biochemical
Settings: multiplexed array; Eu-GTP 10 nM, GDP 3 μM, 1 hour; FIG. 5E

T1 sequence (P35372 whole entry): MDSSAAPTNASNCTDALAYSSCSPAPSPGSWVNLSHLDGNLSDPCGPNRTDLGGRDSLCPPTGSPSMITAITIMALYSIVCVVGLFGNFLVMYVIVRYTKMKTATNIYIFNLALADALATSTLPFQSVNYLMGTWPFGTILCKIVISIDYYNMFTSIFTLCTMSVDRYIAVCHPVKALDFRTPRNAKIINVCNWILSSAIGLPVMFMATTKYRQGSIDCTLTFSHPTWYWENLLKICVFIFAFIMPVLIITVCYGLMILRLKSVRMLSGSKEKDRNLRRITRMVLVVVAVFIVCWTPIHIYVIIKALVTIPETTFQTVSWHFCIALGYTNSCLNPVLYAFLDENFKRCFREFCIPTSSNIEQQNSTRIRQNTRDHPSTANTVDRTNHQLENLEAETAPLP

## C[C@@H](NC(=O)[C@@H](N)Cc1ccc(O)cc1)C(=O)NCC(=O)N(C)[C@@H](Cc1ccccc1)C(=O)NCCO [DAMGO]
  activation of OPRM receptors by agonist (Eu-GTP fluorescence image): selective activation
